# Reference: patent US20230310372A1 (Amarin Pharmaceuticals Ireland Limited, priority 2013, published 2023)
# Values joined by “and” are separate entries in the source; they are usually repeats but may differ in a detail not shown here. Identical values can stand only once.
# Experiment: Phase 1, open-label, crossover drug-drug interaction study: steady-state plasma pharmacokinetics of atorvastatin and its two active metabolites with or without ethyl eicosapentaenoate
# Conditions: for Effect of co-administration of ethyl eicosapentaenoate on Tmax: atorvastatin 80 mg alone versus with 4 g ethyl eicosapentaenoate; for Change of mean plasma concentrations over time: subjects concomitantly administered 4 g of ethyl eicosapentaenoate, FIG. 1B, 1C
# From the text: Data for Cmax and AUC0-24 are reported as means (SD); data for Tmax are reported as median values.
# [1] = 80 mg atorvastatin co-administered with 4 g ethyl eicosapentaenoate
# [2] = atorvastatin + ethyl eicosapentaenoate group divided by atorvastatin only group
# [3] = atorvastatin + ethyl eicosapentaenoate versus atorvastatin only
"AUC0-24, mean (80 mg atorvastatin alone) [ng·h/mL]","Cmax, mean (80 mg atorvastatin alone) [ng/mL]","Tmax, median (80 mg atorvastatin alone) [h]","AUC0-24, mean [1] [ng·h/mL]","Cmax, mean [1] [ng/mL]","Tmax, median [1] [h]","AUC0-24, LSGM (least squares geometric mean) (A + EPA = atorvastatin (80 mg) co-administered with ethyl eicosapentaenoate (4 g)) [ng·h/mL]",Effect of co-administration of ethyl eicosapentaenoate on Tmax,"AUC0-24, Ratio of LSGM [2]","Cmax, Ratio of LSGM [2]","AUC0-24, 90% CI of the ratio [3]","Cmax, 90% CI of the ratio [3]",Change of mean plasma concentrations over time,Compound
213.1,43.2,1.25,196.7,44.5,1.25,30.9,did not significantly affect,0.91 and 0.92,1.04 and 0.97,82.8-99.7 and 82.3-103,89.1-121 and 80.0-117,did not significantly change,"CC(C)c1c(C(=O)Nc2ccccc2O)c(-c2ccccc2)c(-c2ccc(F)cc2)n1CCC(O)CC(O)CC(=O)O (stereo not drawn) [2-Hydroxyatorvastatin, 2-hydroxyatorvastatin]"
36.7,4.1,1.50,34.3,4.2,1.50,–,did not significantly affect,–,–,–,–,did not significantly change,"CC(C)c1c(C(=O)Nc2ccc(O)cc2)c(-c2ccccc2)c(-c2ccc(F)cc2)n1CC[C@@H](O)C[C@@H](O)CC(=O)O [4-Hydroxyatorvastatin, 4-hydroxyatorvastatin]"
